Laboratory results reported in US20240158446A1, “CYCLIC COMPOUND HAVING SELECTIVE INHIBITORY ACTION ON KRAS OVER HRAS AND NRAS” (CHUGAI SEIYAKU KABUSHIKI KAISHA, priority 2021, published 2024).
*1 amine or outer side, *2 acyl side, *3 side chain or, on linkers, in order; H or OH if unused. Where a SMILES comes first, the peptide text is derived from it. Bridges are numbered along the chain shown (N, C = ends). [ ]: non-standard residue; d: D form. The star is where a group is joined. hPhe(3,5-F2-4-CF3) = N[C@@H](CCc1cc(F)c(C(F)(F)F)c(F)c1)C(=O)O; hPhe(3-Cl-4-CF3) = N[C@@H](CCc1ccc(C(F)(F)F)c(Cl)c1)C(=O)O; X49 = CCCN([C@@H](Cc1ccc(OCC=[*:3])cc1)C(=O)[*:2])[*:1]; NPrPhe(4-CF3) = CCCN[C@@H](Cc1ccc(C(F)(F)F)cc1)C(=O)O; X48 = CN([C@@H](CCC=[*:3])C(=O)[*:2])[*:1]; NMeGly(cPent) = CN[C@H](C(=O)O)C1CCCC1; Hyp = O=C(O)[C@@H]1C[C@@H](O)CN1; NMeD = CN[C@@H](CC(=O)O)C(=O)O; NMeL = CN[C@@H](CC(C)C)C(=O)O; Morpholide = C1CN(*)CCO1; Ac5c = NC1(C(=O)O)CCCC1; Aze = O=C(O)[C@@H]1CCN1; Abu = CC[C@H](N)C(=O)O; Sar = CNCC(=O)O

Key:
[1] = target: GDP-bound NRAS wild-type protein (Homo sapiens, UniProt P01111); experiment: Binding to NRAS by surface plasmon resonance (SPR), Single Cycle Kinetics; settings: SPR, GDP-bound NRAS wild-type protein vs GDP-bound KRAS wild-type protein
[2] = target: GDP-bound HRAS wild-type protein (Homo sapiens, UniProt P01112); experiment: Binding to HRAS by surface plasmon resonance (SPR), Single Cycle Kinetics; settings: SPR, GDP-bound HRAS wild-type protein vs GDP-bound KRAS wild-type protein
[3] = test system: human lung cancer strain NCI-H441;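 also: cell proliferation inhibition after four days measured by CellTiter-Glo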

GDP-bound HRAS wild-type protein, sequence (P01112 whole entry): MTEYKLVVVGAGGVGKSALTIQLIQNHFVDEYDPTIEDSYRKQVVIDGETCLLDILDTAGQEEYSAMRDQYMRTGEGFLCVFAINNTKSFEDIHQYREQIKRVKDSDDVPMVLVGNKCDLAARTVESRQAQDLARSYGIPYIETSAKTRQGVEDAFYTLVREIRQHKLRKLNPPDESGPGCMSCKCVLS
GDP-bound NRAS wild-type protein, sequence (P01111 whole entry): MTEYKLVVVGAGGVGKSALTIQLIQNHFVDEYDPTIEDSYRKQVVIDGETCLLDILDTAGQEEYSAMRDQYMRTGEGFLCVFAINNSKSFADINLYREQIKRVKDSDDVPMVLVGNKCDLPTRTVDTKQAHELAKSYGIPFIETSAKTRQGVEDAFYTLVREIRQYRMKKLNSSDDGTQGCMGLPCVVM

Row | Compound | NRAS/KRAS (ratio of KD value for NRAS to KD value for KRAS) [1] | HRAS/KRAS (ratio of KD value for HRAS to KD value for KRAS) [2] | IC50 [3] [nM]
1 | CCCN1C(=O)CN(C)C(=O)[C@@H]2CCN2C(=O)[C@H](CC)NC(=O)[C@H](CC(C)C)N(C)C(=O)C[C@@H](C(=O)N2CCOCC2)N(C)C(=O)[C@H](C2CCCC2)N(C)C(=O)C2(CCCC2)NC(=O)[C@@H]2CCCN2C(=O)[C@H](CCc2ccc(C(F)(F)F)c(Cl)c2)NC(=O)CN(C)C(=O)[C@@H]1Cc1ccc(C(F)(F)F)cc1 [PP0303] ([NMeL][Abu][Aze][Sar][NPrPhe(4-CF3)][Sar][hPhe(3-Cl-4-CF3)]P[Ac5c][NMeGly(cPent)][NMeD]-Morpholide; lactam N-11) | B (a compound having 3 or more and less than 10 is denoted as B) | B (a compound having 3 or more and less than 10 is denoted as B) | 349
2 | CCO[C@@H]1C[C@H]2C(=O)NC3(CCC3)C(=O)N(C)[C@@H](C3CCCC3)C(=O)N(C)[C@H](C(=O)N(C)C)CC(=O)N(C)[C@@H](CC)C(=O)N[C@@H]([C@@H](C)CC)C(=O)N(C)CC(=O)N(C)[C@H]3CCCCCN(C3=O)[C@@H](Cc3nccs3)C(=O)N(C)CC(=O)N[C@@H](CCc3cc(F)c(C(F)(F)F)c(F)c3)C(=O)N2C1 [PP0913] | B (a compound having 3 or more and less than 10 is denoted as B) | B (a compound having 3 or more and less than 10 is denoted as B) | 206
3 | CCCN1C(=O)CN(C)C(=O)CN(C)C(=O)[C@H]([C@@H](C)CC)NC(=O)[C@@H]2CCC=CCOc3ccc(cc3)C[C@H]1C(=O)N(C)CC(=O)N[C@@H](CCc1cc(F)c(C(F)(F)F)c(F)c1)C(=O)N1C[C@H](OCC)C[C@H]1C(=O)NC1(CCCC1)C(=O)N(C)[C@@H](C1CCCC1)C(=O)N(C)[C@H](C(=O)N(C)C)CC(=O)N2C [PP0900] ([X48]I[Sar][Sar][X49][Sar][hPhe(3,5-F2-4-CF3)][Hyp](Et)[Ac5c][NMeGly(cPent)][NMeD]-NMe2; staple 1-5; lactam N-11) | C (A compound having a KD ratio of 0.1 or more and less than 3 is denoted as C) | C (A compound having a KD ratio of 0.1 or more and less than 3 is denoted as C) | 4.9
4 | CC[C@H](C)[C@@H]1NC(=O)[C@H](Cc2cccc(Cl)c2)N(C)C(=O)C[C@@H](C(=O)N2CCOCC2)N(C)C(=O)[C@H](C2CCCC2)N(C)C(=O)C2(CCCC2)NC(=O)[C@@H]2CCCN2C(=O)[C@H](CCc2ccc(C(F)(F)F)c(Cl)c2)NC(=O)CN(C)C(=O)[C@H](Cc2ccc(F)cc2)N2CCCCC[C@@H](C2=O)N(C)C(=O)CN(C)C1=O [PP0963] | B (a compound having 3 or more and less than 10 is denoted as B) | B (a compound having 3 or more and less than 10 is denoted as B) | 100
